Data as given in ChEMBL document CHEMBL4257451, “Synergism of fused bicyclic 2-aminothiazolyl compounds with polymyxin B against Klebsiella pneumoniae” (Medchemcomm, 2017).

Tests used:
[1] = system: Klebsiella pneumoniae; experiment: Growth inhibition of Klebsiella pneumoniae SIPI-KPN-1712 by broth microdilution method; assay type: organism-based; settings: in vitro
[2] = system: Klebsiella pneumoniae; experiment: Synergistic antibacterial activity against Klebsiella pneumoniae SIPI-KPN-1712 assessed as polymixin B MIC at 4 ug/ml by broth microdilution method (reference value: 32 ug/ml); assay type: functional
[3] = system: Klebsiella pneumoniae; experiment: Synergistic antibacterial activity against Klebsiella pneumoniae SIPI-KPN-1712 assessed as fractional Inhibitory concentration index in presence of polymixin B at 2 ug/ml by broth microdilution method; assay type: functional

## O=C(OC1CCCc2nc(Nc3ccc(Cl)cc3)sc21)n1ccnc1 (centres undefined)
[1]
  MIC: > 128 µg/mL
[2]
  MIC: 32 µg/mL
[3]
  fractional inhibitory concentration index (FICI): 1.03

## COC1CCCc2nc(Nc3cccc(C)c3C)sc21 (centres undefined)
[1]
  MIC: > 128 µg/mL
[2]
  MIC: 32 µg/mL
[3]
  fractional inhibitory concentration index (FICI): 1.03

## CCCC(CCC)OC1CCCc2nc(Nc3ccc(Cl)cc3)sc21 (centres undefined)
[1]
  MIC: > 128 µg/mL
[2]
  MIC: 4 µg/mL
[3]
  fractional inhibitory concentration index (FICI): 0.16

## COC1CCCc2nc(Nc3ccccc3C(F)(F)F)sc21 (centres undefined)
[1]
  MIC: > 128 µg/mL
[2]
  MIC: 16 µg/mL
[3]
  fractional inhibitory concentration index (FICI): 0.53

## COc1cc(Nc2nc3c(s2)C(OC)CCC3)cc(OC)c1OC (centres undefined)
[1]
  MIC: > 128 µg/mL
[2]
  MIC: 16 µg/mL
[3]
  fractional inhibitory concentration index (FICI): 0.53

## COc1ccc(Nc2nc3c(s2)C(OC)CCC3)cc1 (centres undefined)
[1]
  MIC: > 128 µg/mL
[2]
  MIC: 16 µg/mL
[3]
  fractional inhibitory concentration index (FICI): 0.53

## COC1CCCc2nc(Nc3ccc([N+](=O)[O-])cc3)sc21 (centres undefined)
[1]
  MIC: > 128 µg/mL
[2]
  MIC: 16 µg/mL
[3]
  fractional inhibitory concentration index (FICI): 0.53

## CCOC1CCCc2nc(Nc3ccc4ccccc4n3)sc21 (centres undefined)
[1]
  MIC: > 128 µg/mL
[2]
  MIC: 32 µg/mL
[3]
  fractional inhibitory concentration index (FICI): 1.03

## Clc1ccc(Nc2nc3ccccc3s2)cc1
[1]
  MIC: > 128 µg/mL
[2]
  MIC: 32 µg/mL
[3]
  fractional inhibitory concentration index (FICI): 1.03

## Clc1ccc(Nc2nc3c(s2)C(OC2CCCC2)CCC3)cc1 (centres undefined)
[1]
  MIC: > 128 µg/mL
[2]
  MIC: 8 µg/mL
[3]
  fractional inhibitory concentration index (FICI): 0.28

## COC1CCCc2nc(Nc3ccc(N(C)C)cc3)sc21 (centres undefined)
[1]
  MIC: > 128 µg/mL
[2]
  MIC: 16 µg/mL
[3]
  fractional inhibitory concentration index (FICI): 0.53

## COC1CCCc2nc(Nc3ccc(Cl)cc3Cl)sc21 (centres undefined)
[1]
  MIC: > 128 µg/mL
[2]
  MIC: 8 µg/mL
[3]
  fractional inhibitory concentration index (FICI): 0.28

## COC1CCCc2nc(Nc3ccc(C#N)c(C(F)(F)F)c3)sc21 (centres undefined)
[1]
  MIC: > 128 µg/mL
[2]
  MIC: 16 µg/mL
[3]
  fractional inhibitory concentration index (FICI): 0.53

## COC1CCCc2nc(Nc3cccc(Br)c3)sc21 (centres undefined)
[1]
  MIC: > 128 µg/mL
[2]
  MIC: 16 µg/mL
[3]
  fractional inhibitory concentration index (FICI): 0.53

## CCc1ccc(Nc2nc3c(s2)C(OC)CCC3)cc1 (centres undefined)
[1]
  MIC: > 128 µg/mL
[2]
  MIC: 32 µg/mL
[3]
  fractional inhibitory concentration index (FICI): 1.03

## COC1CCCc2nc(Nc3ncccn3)sc21 (centres undefined)
[1]
  MIC: > 128 µg/mL
[2]
  MIC: 16 µg/mL
[3]
  fractional inhibitory concentration index (FICI): 0.53

## COC1CCCc2nc(Nc3c(F)cccc3F)sc21 (centres undefined)
[1]
  MIC: > 128 µg/mL
[2]
  MIC: 32 µg/mL
[3]
  fractional inhibitory concentration index (FICI): 1.03

## CCCCOC1CCCc2nc(Nc3ccc(C)cc3)sc21 (centres undefined)
[1]
  MIC: > 128 µg/mL
[2]
  MIC: 32 µg/mL
[3]
  fractional inhibitory concentration index (FICI): 1.03

## CCOC1CCCc2nc(Nc3ccc(Oc4ccccc4C)cc3)sc21 (centres undefined)
[1]
  MIC: > 128 µg/mL
[2]
  MIC: 32 µg/mL
[3]
  fractional inhibitory concentration index (FICI): 1.03

## O=C(OC1CCCc2nc(Nc3ccc(F)cc3)sc21)n1ccnc1 (centres undefined)
[1]
  MIC: > 128 µg/mL
[2]
  MIC: 32 µg/mL
[3]
  fractional inhibitory concentration index (FICI): 1.03

## CCOC1CCCc2nc(Nc3ccc(Br)cc3)sc21 (centres undefined)
[1]
  MIC: > 128 µg/mL
[2]
  MIC: 2 µg/mL
[3]
  fractional inhibitory concentration index (FICI): 0.09

## OC1CCCc2nc(Nc3ccc(C(F)(F)F)cc3)sc21 (centres undefined)
[1]
  MIC: > 128 µg/mL
[2]
  MIC: 16 µg/mL
[3]
  fractional inhibitory concentration index (FICI): 0.53

## OC1CCCc2nc(Nc3ccccc3)sc21 (centres undefined)
[1]
  MIC: > 128 µg/mL
[2]
  MIC: 32 µg/mL
[3]
  fractional inhibitory concentration index (FICI): 1.03

## CCCOC1CCCc2nc(Nc3ccc(C)cc3)sc21 (centres undefined)
[1]
  MIC: > 128 µg/mL
[2]
  MIC: 16 µg/mL
[3]
  fractional inhibitory concentration index (FICI): 0.53

## FC(F)(F)c1ccc2nc(Nc3ccccc3)sc2c1
[1]
  MIC: > 128 µg/mL
[2]
  MIC: 16 µg/mL
[3]
  fractional inhibitory concentration index (FICI): 0.53

## O=C(OC1CCCc2nc(Nc3ccc(Cl)cn3)sc21)n1ccnc1 (centres undefined)
[1]
  MIC: > 128 µg/mL
[2]
  MIC: 16 µg/mL
[3]
  fractional inhibitory concentration index (FICI): 0.53

## COCCOC1CCCc2nc(Nc3ccc(C)cc3)sc21 (centres undefined)
[1]
  MIC: > 128 µg/mL
[2]
  MIC: 32 µg/mL
[3]
  fractional inhibitory concentration index (FICI): 1.03

## CCOC1CCCc2nc(Nc3ncccn3)sc21 (centres undefined)
[1]
  MIC: > 128 µg/mL
[2]
  MIC: 16 µg/mL
[3]
  fractional inhibitory concentration index (FICI): 0.53

## COC1CCCc2nc(Nc3ccc4ccccc4c3)sc21 (centres undefined)
[1]
  MIC: > 128 µg/mL
[2]
  MIC: 32 µg/mL
[3]
  fractional inhibitory concentration index (FICI): 1.03

## COC1CCCc2nc(Nc3ccc(C(F)(F)F)cc3Cl)sc21 (centres undefined)
[1]
  MIC: > 128 µg/mL
[2]
  MIC: 4 µg/mL
[3]
  fractional inhibitory concentration index (FICI): 0.16

## CCOC1CCCc2nc(Nc3ccc(C)cc3)sc21 (centres undefined)
[1]
  MIC: > 128 µg/mL
[2]
  MIC: 4 µg/mL
[3]
  fractional inhibitory concentration index (FICI): 0.16

## COC1CCCc2nc(Nc3nccs3)sc21 (centres undefined)
[1]
  MIC: > 128 µg/mL
[2]
  MIC: 32 µg/mL
[3]
  fractional inhibitory concentration index (FICI): 1.03

## COC1CCCc2nc(Nc3cccc(C)c3)sc21 (centres undefined)
[1]
  MIC: > 128 µg/mL
[2]
  MIC: 32 µg/mL
[3]
  fractional inhibitory concentration index (FICI): 1.03
